pEC50, pKi: −log10 of the molar value. The source made the active and inactive calls. The rule behind the calls is not given here.
Molecular target: Mitogen-activated protein kinase kinase kinase 3 (Homo sapiens) (UniProt Q99759)
Assay: MEKK3 PB1-MEK5 interaction blockers – biochemical, bead multiplex flow cytometry, wildtype, dose response (AID 1896)
Settings: bead-based multiplex flow cytometry, MEK5-MEKK3 PB1 binding; for pKi: measured here: Ki from EC50

Chain of Mitogen-activated protein kinase kinase kinase 3 (Homo sapiens) (Q99759 whole entry, looked up): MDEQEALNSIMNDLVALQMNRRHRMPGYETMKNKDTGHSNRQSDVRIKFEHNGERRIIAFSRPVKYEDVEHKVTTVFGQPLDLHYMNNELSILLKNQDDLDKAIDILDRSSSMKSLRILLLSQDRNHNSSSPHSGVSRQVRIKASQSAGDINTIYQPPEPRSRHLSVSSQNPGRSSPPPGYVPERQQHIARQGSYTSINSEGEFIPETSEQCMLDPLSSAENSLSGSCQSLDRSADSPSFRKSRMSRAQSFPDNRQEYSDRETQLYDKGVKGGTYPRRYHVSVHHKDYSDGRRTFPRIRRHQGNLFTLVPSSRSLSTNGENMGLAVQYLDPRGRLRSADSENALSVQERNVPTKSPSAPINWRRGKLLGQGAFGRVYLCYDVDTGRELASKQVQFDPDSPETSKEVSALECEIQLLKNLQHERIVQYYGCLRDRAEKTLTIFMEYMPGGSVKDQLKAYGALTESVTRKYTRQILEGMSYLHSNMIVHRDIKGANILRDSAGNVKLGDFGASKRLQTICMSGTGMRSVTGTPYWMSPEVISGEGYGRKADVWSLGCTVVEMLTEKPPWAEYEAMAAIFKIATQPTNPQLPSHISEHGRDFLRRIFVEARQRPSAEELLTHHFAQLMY

SMILES | EC50 | pEC50 | pKi
COc1ccc(N2CC(C(=O)Nc3nnc(SCc4ccccn4)s3)CC2=O)cc1 (configuration not stated) | > 30 µM (inactive) |  | 
C#CCOCCOCCOCCNc1nc(N2CCN(C(=O)C(Cc3ccc(O)cc3)n3cc(C(N)CC(C)C)nn3)CC2)nc(N2CCN(C(=O)C(Cc3cc4ccccc4[nH]3)n3cc(C(N)C(C)CC)nn3)CC2)n1 (configuration not stated) | > 30 µM (inactive) |  | 
O=C(c1cc(COc2c(F)cccc2F)on1)N1C[C@H]2CC[C@H]1C2 | > 30 µM (inactive) |  | 
Cc1nc(N)sc1-c1csc(Nc2ncccn2)n1 | > 30 µM (inactive) |  | 
CCN1/C(=C/c2ccc3cc(C)cc(C)c3[n+]2CC)Sc2cc(C)ccc21 |  | 4.98 | 5.04
CCCCCc1cc(=O)oc2c(C(CCN3CCCC(C)C3)c3ccc4c(c3)OCO4)c(OC)cc(OC)c12 (configuration not stated) | > 30 µM (inactive) |  | 
Brc1ccc(N=C/C=C/C=C/Nc2ccc(Br)cc2)cc1 |  | 4.98 | 5.04
CCCCCc1cc(=O)oc2c(C(CCN3CCCC3)c3ccc(N(C)C)cc3)c(OC)cc(OC)c12 (configuration not stated) | > 30 µM (inactive) |  | 
S=c1[nH]nc(-c2ccc(Cl)cc2)n1-c1ccc2c(c1)OCCO2 | > 30 µM (inactive) |  | 
CCN1/C(=C\c2ccc3cc(C)ccc3[n+]2CC)Sc2cc(C)c(C)cc21 |  | 5.03 | 5.10
CCCCn1c(O)c(/C=C/C=C/C=Nc2ccccc2)sc1=S |  | 5.89 | 5.96
CCN(CC)CCOC(=O)c1ccc(N/C=C(/C#N)c2nc(-c3ccc4c(c3)OCO4)cs2)cc1 | > 30 µM (inactive) |  | 
CCCN1C(=O)/C(=C\C=C2/Sc3ccccc3N2CC)SC1=S | > 30 µM (inactive) |  | 
NC(=O)CSc1nnc(Cc2ccc3c(c2)OCO3)o1 | > 30 µM (inactive) |  | 
CN1CCN(CC(=O)N2CCn3c4c(c5cc(C6CCCCC6)ccc53)CCCC42)CC1 (configuration not stated) | > 30 µM (inactive) |  | 
OCCCCNCc1ccc(OCc2ccc(Cl)cc2Cl)cc1 | > 30 µM (inactive) |  | 
CCN1/C(=C/C(C)=C/c2sc3ccccc3[n+]2CC)Sc2ccccc21 |  | 6.00 | 6.07

The next lines start with the values.

EC50 | pEC50 | pKi | SMILES
> 30 µM (inactive) |  |  | S=C(Nc1cccc(Cl)c1)N(CCCN1CCCC1)Cc1cccn1Cc1ccc(Cl)cc1
 | 6.47 | 6.54 | CN(c1ccccc1)c1ccc(/C=c2\s/c(=C(/C#N)C(=O)C(C)(C)C)n(Cc3ccco3)c2=O)cc1
> 30 µM (inactive) |  |  | COc1ccc(Cn2cc3c(-c4ccc(F)cc4)nnc-3c3cc(OC)c(OC)cc32)cc1
> 30 µM (inactive) |  |  | CC(=O)Nc1ccc(OCC(O)Cn2c3ccccc3c3ccccc32)cc1 (configuration not stated)
> 30 µM (inactive) |  |  | Cc1ccc(CN2CCSc3ccc(C(=O)NC4CCN(Cc5ccccc5)CC4)cc32)cc1
> 30 µM (inactive) |  |  | CCOC(=O)c1c(-c2ccc(-c3ccccc3)cc2)csc1NC(=O)CNCCN(C)C
> 30 µM (inactive) |  |  | CCn1cc(C(=O)O)c(=O)c2cc(F)c(N3CCN(C(=S)NC(=O)c4ccc(Br)cc4)CC3)cc21
> 30 µM (inactive) |  |  | CC(=O)Nc1cccc2c1C(=O)N(c1cccc(C)c1)C2=O
 | 5.25 | 5.32 | Cc1cc2ccccc2n1CCNC(=O)c1ccccc1
> 30 µM (inactive) |  |  | N=C(N)SCc1cn(-c2ccccc2)nc1-c1ccc(Br)cc1
> 30 µM (inactive) |  |  | COc1ccc(-c2csc(N(CCCN(C)C)C(=O)c3ccccc3Cl)n2)cc1
> 30 µM (inactive) |  |  | CCN(CC)CCOC(=O)c1ccc(NC(=O)c2cn(-c3ccccc3)nc2-c2cccs2)cc1
> 30 µM (inactive) |  |  | CCN(Cc1ccccc1)S(=O)(=O)c1ccc(C(=O)N(CCCN(C)C)c2nc3ccc(F)cc3s2)cc1
> 30 µM (inactive) |  |  | CN(C)CCCn1c(SCC(=O)Nc2nc(-c3cccc(Br)c3)cs2)nc2ccccc2c1=O
> 30 µM (inactive) |  |  | O=C(NNc1c2ccccc2nc2ccccc12)c1cc2ccccc2cc1O
 | 5.57 | 5.64 | CN1CCN(c2ccc(NC(=O)c3ccc(-c4ccc(Cl)cc4)o3)cc2)CC1
> 30 µM (inactive) |  |  | CCOC(=O)C1=C(c2ccccc2)NC(N)=NC1c1ccc(OCc2ccc(C(=O)OC)cc2)cc1 (configuration not stated)
